Data on 23 compounds can be found in patent publication US7351857B2, “Methods of using substituted tetralins and indanes” (Janssen Pharmaceutica N.V., priority 2002, dated 2008).

The target in data set [1] is T1, PPARγ (Homo sapiens, UniProt P37231).
T1 construct: Following the challenge of the preadipocytes, cells may be lysed with lysis buffer; endogenous in cells; host or cells: preadipocytes
T1 sequence (P37231 1-505): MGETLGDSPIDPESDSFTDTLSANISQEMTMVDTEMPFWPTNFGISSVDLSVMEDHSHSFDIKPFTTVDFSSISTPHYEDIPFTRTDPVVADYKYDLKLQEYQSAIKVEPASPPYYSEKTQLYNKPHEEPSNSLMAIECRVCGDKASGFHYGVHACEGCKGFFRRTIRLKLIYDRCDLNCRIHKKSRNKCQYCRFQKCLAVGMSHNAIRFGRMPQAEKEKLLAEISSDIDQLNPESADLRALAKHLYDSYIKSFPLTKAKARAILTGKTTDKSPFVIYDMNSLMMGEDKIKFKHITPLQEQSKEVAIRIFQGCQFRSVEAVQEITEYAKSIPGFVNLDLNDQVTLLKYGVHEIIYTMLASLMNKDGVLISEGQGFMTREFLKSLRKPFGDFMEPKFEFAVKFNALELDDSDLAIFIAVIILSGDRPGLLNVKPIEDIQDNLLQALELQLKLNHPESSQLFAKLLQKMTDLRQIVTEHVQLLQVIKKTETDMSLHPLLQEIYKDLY
Description: aP2 assay for PPAR gamma agonists (bDNA aP2 mRNA in preadipocytes). It is filed as cell-based. The settings on record: unbracketed values; PPARγ standard FI = 70.3. The method, then: The procedure is described in detail in Burris et al., Molecular Endocrinology, 1999, 13:410, which is hereby incorporated by reference in its entirety, and aP2 assay results of agonist intrinsic activity may be presented as fold increase over vehicle in induction of aP2 mRNA production.
Twenty-four hours after the initial seeding of the 96-well plates by hand (around 20,000/well), the differentiation assay may be initiated. Medium may be removed and replaced with 150 μl of differentiation medium containing vehicle (DMSO) or test compounds. Cells may be returned to incubator for 24 hours culture. At the termination of the challenge, medium may be removed and 100 ul of lysis buffer may be added to initiate the bDNA aP2 mRNA assay. The branched DNA assay may be performed according to the manufacturer's protocol (Bayer Diagnostics; Emeryville, Calif.). Result may be expressed as the fold increase of aP2 mRNA production activated over vehicle controls. EC50's and Emax may be determined by non-linear regression with a sigmoidal fit curve.
Following the challenge of the preadipocytes, cells may be lysed with lysis buffer (Bayer Diagnostics) containing the aP2 oligonucleotides. After a 15 minute incubation at 53° C. or 30 minutes at 37° C. incubator, 70 ul of the lysis buffer from each well may be added to a corresponding capture well (preincubated with 70 ul of blocking buffer (Bayer Diagnostics)). The capture plate may be incubated overnight at 53° C. in a plate incubator (Bayer Diagnostics). After this incubation, the bDNA and labeled probes may be annealed as directed by the manufacturer. Following a 30-minute incubation with the luminescent alkaline phosphatase substrate, dioxitane, the luminescence may be quantitated in a Dynex MLX microtiter plate luminometer. Oligonucleotide probes designed to anneal to the aP2 mRNA and function in the bDNA mRNA detection system are designed with ProbeDesigner software (Bayer Diagnostics). This software package analyzes a target sequence of interest with a series of algorithms in order to determine which regions of the sequence can perform as locations for capture, label, or spacer probe annealing. The sequences of the oligonucleotides are as follows: […]

Data set [2] deals with T2, PPARδ (Homo sapiens, UniProt Q03181).
T2 sequence (Q03181 171-441 limits assumed): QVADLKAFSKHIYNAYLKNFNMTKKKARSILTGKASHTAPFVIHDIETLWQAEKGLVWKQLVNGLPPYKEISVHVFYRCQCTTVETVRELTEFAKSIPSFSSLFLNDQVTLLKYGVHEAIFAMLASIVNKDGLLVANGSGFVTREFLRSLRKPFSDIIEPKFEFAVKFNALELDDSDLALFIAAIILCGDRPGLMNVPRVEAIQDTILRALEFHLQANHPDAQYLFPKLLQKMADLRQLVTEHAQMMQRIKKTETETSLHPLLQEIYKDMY
Description: Transfection assay for PPARδ receptors (PPAR-Gal4 / Gal4-luciferase reporter in HEK293 cells). To be noted: for PPARδ FI (fold induction): unbracketed values, PPARδ standard FI = 36.1. It is filed as cell-based. The method, then:
HEK293 cells were grown in DMEM/F-12 Media supplemented with 10% FBS and glutamine (GIBCOBRL). The cells were co-transfected with DNA for PPAR-Gal4 receptor and Gal4-Luciferase Reporter using the DMRIE-C Reagent. On the following day, the DNA-containing medium were replaced with 5% Charcoal treated FBS growth medium. After six hours, cells were seeded in 96 well plate and incubated at 37° C. in CO2 incubator overnight. Cells were challenged by test compounds and incubated for 24 hours at 37° C. in 5% CO2 incubator. Luciferase activity was assayed using the Steady-Glo Luciferase Assay Kit from Promega. DMRIE-C Reagent was purchased from GIBCO Cat. No. 10459-014. OPTI-MEM I Reduced Serum Medium was purchased from GIBCO Cat. No. 31985. Steady-Glo Luciferase Assay Kit was obtained from Promega Part# E254B.
A general note: In a reporter assay the amount or activity of a reporter protein is the signal.

Where only a bound is given, the exact number is not on record here.

Regarding `CCN(C(=O)Nc1ccc(SC(F)(F)F)cc1)C1Cc2ccc(SC(C)(C)C(=O)O)cc2C1` (centres unmarked) [Example 4, 2-{2-[1-Ethyl-3-(4-trifluoromethylsulfanylphenyl)ureido]indan-5-ylsulfanyl}-2-methylpropionic acid], the “PPARγ FI (fold induction)” value in data set [1] was determined as 3.7.
For the compound `CCN(C(=O)Nc1ccc(N(C)C)cc1)C1Cc2ccc(SC(C)(C)C(=O)O)cc2C1` (centres unmarked) [Example 7, 2-{2-[3-(4-Dimethylaminophenyl)-1-ethylureido]indan-5-ylsulfanyl}-2-methylpropionic acid], the “PPARδ FI (fold induction)” value in data set [2] came out at 0.8.
Consider `CCCCCN(C(=O)Nc1ccc(C(C)C)cc1)C1Cc2ccc(SC(C)(C)C(=O)O)cc2C1` (centres unmarked) [Example 10, 2-{2-[3-(4-Isopropylphenyl)-1-(pentyl)ureido]indan-5-ylsulfanyl}-2-methylpropionic acid], for which, in data set [1], the “PPARγ FI (fold induction)” value is on record as 5.1.
On to `CCCCCN(C(=O)Nc1ccc(C(C)(C)C)cc1)C1Cc2ccc(SC(C)(C)C(=O)O)cc2C1` (centres unmarked) [Example 11, 2-{2-[3-(4-tert-butylphenyl)-1-(pentyl)ureido]indan-5-ylsulfanyl}-2-methylpropionic acid], for which the “PPARγ FI (fold induction)” value in data set [1] stood at 6.1.
Regarding `CCCCCN(C(=O)Nc1ccc(-c2ccccc2)cc1)C1Cc2ccc(SC(C)(C)C(=O)O)cc2C1` (centres unmarked) [Example 12, 2-[2-(3-Biphenyl-4-yl-1-pentylureido)indan-5-ylsulfanyl]-2-methylpropionic acid], the “PPARγ FI (fold induction)” value in data set [1] is 11.
Turning to `CCCCCCN(C(=O)Nc1ccc(C(C)C)cc1)C1Cc2ccc(SC(C)(C)C(=O)O)cc2C1` (centres unmarked) [Example 13, 2-{2-[3-(4-Isopropylphenyl)-1-(hexyl)ureido]indan-5-ylsulfanyl}-2-methylpropionic acid], the “PPARγ FI (fold induction)” value in data set [1] was determined as 1.2.
Consider `CCCCCCN(C(=O)Nc1ccc(SC(F)(F)F)cc1)C1Cc2ccc(SC(C)(C)C(=O)O)cc2C1` (centres unmarked) [Example 15, 2-Methyl-2-{2-[1-hexyl-3-(4-trifluoromethylsulfanylphenyl)ureido]indan-5-ylsulfanyl}propionic acid], for which, in data set [2], the “PPARδ FI (fold induction)” value stood at 1.2.
For `CCCN(C(=O)Nc1ccc(OC(F)(F)F)cc1)C1Cc2ccc(SC(C)(C)C(=O)O)cc2C1` (centres unmarked) [Example 16, 2-Methyl-2-{2-[1-propyl-3-(4-trifluoromethoxyphenyl)ureido]indan-5-ylsulfanyl}propionic acid], in data set [1], the “PPARγ FI (fold induction)” value is recorded as 0.37.
For the compound `CCCCN(C(=O)Nc1ccc(SC(F)(F)F)cc1)C1Cc2ccc(SC(C)(C)C(=O)O)cc2C1` (centres unmarked) [Example 17, 2-Methyl-2-{2-[1-butyl-3-(4-trifluoromethylsulfanylphenyl)ureido]indan-5-ylsulfanyl}propionic acid], the “PPARγ FI (fold induction)” value in data set [1] was 0.43.
As for `CC(C)(Sc1ccc2c(c1)CC(NC(=O)Nc1ccc(OC(F)(F)F)cc1)C2)C(=O)O` (centres unmarked) [Example 18, 2-Methyl-2-{2-[3-(4-trifluoromethoxyphenyl)ureido]indan-5-ylsulfanyl}propionic acid], the “PPARγ FI (fold induction)” value in data set [1] stood at 0.31.
`C=CCCCN(C(=O)Nc1ccc(OC(F)(F)F)cc1)C1Cc2ccc(SC(C)(C)C(=O)O)cc2C1` (centres unmarked) [Example 19, 2-Methy-2-{2-[1-pent-4-enyl-3-(4-trifluoromethoxyphenyl)ureido]indan-5-ylsulfanyl}propionic acid]: the “PPARδ FI (fold induction)” value in data set [2] worked out at 1.4.
As for `CC(C)CCN(C(=O)Nc1ccc(OC(F)(F)F)cc1)C1Cc2ccc(SC(C)(C)C(=O)O)cc2C1` (centres unmarked) [Example 20, 2-Methyl-2-{2-[1-(3-methylbutyl)-3-(4-trifluoromethoxyphenyl)ureido]indan-5-ylsulfanyl}-2-methylpropionic acid], the “PPARγ FI (fold induction)” value in data set [1] is 0.44.
As for `CC(C)CCN(C(=O)Nc1ccc(C(C)C)cc1)C1Cc2ccc(SC(C)(C)C(=O)O)cc2C1` (centres unmarked) [Example 21, 2-{2-[3-(4-Isopropylphenyl)-1-(3-methylbutyl)ureido]indan-5-ylsulfanyl}-2-methylpropionic acid], in data set [1], the “PPARγ FI (fold induction)” value came to 0.05.
In the case of `CCN(C(=O)Nc1ccc(OC(F)(F)F)c(Br)c1)C1Cc2ccc(SC(C)(C)C(=O)O)cc2C1` (centres unmarked) [Example 25, 2-{2-[3-(3-Bromo-4-trifluoromethoxyphenyl)-1-ethylureido]indan-5-ylsulfanyl}-2-methylpropionic acid], in data set [2], the “PPARδ FI (fold induction)” value is 4.5.
Turning to `CCN(C(=O)Nc1cccc(OC(F)(F)F)c1)C1Cc2ccc(SC(C)(C)C(=O)O)cc2C1` (centres unmarked) [Example 26, 2-{2-[1-Ethyl-3-(3-trifluoromethoxyphenyl)ureido]indan-5-ylsulfanyl}-2-methylpropionic acid], the “PPARδ FI (fold induction)” value in data set [2] is given as 2.1.
`CC(C)(Sc1ccc2c(c1)CC(N(CCCC1CCCC1)C(=O)Nc1ccc(OC(F)(F)F)cc1)C2)C(=O)O` (centres unmarked) [Example 28, 2-{2-[1-(3-Cyclopentylpropyl)-3-(4-trifluoromethoxyphenyl)ureido]indan-5-ylsulfanyl}-2-methylpropionic acid]: in data set [2], the “PPARδ FI (fold induction)” value was 8.2.
Consider `CCCN(C(=O)Nc1ccc(OC)cc1)C1Cc2ccc(SC(C)(C)C(=O)O)cc2C1` (centres unmarked) [Example 32, 2-{2-[3-(4-Methoxyphenyl)-1-propylureido]indan-5-ylsulfanyl}-2-methylpropionic acid], for which, in data set [2], the “PPARδ FI (fold induction)” value is given as 1.5.
Consider `CCCN(C(=O)Nc1cc(C)cc(C)c1)C1Cc2ccc(SC(C)(C)C(=O)O)cc2C1` (centres unmarked) [Example 33, 2-{2-[3-(3,5-Dimethylphenyl)-1-propylureido]indan-5-ylsulfanyl}-2-methylpropionic acid], for which the “PPARδ FI (fold induction)” value in data set [2] is listed as 0.8.
For `CCCN(C(=O)Nc1ccc(C(F)(F)F)cc1)C1Cc2ccc(SC(C)(C)C(=O)O)cc2C1` (centres unmarked) [Example 35, 2-Methyl-2-{2-[1-propyl-3-(4-trifluoromethylphenyl)ureido]indan-5-ylsulfanyl}-propionic acid], the “PPARδ FI (fold induction)” value in data set [2] came out at 5.6.
On the same count and under the same terms, for `CC(C)(Sc1ccc2c(c1)CC(N(CCCC1CCCC1)C(=O)Nc1ccccc1)C2)C(=O)O` (centres unmarked) [Example 37, 2-{2-[1-(3-Cyclopentylpropyl)-3-phenylureido]indan-5-ylsulfanyl}-2-methylpropionic acid] the value was 1.9.
In the case of `CCCCCN(C(=O)Nc1ccc2ccccc2c1)C1Cc2ccc(SC(C)(C)C(=O)O)cc2C1` (centres unmarked) [Example 39, 2-Methyl-2-[2-(3-naphthalen-2-yl-1-pentylureido)indan-5-ylsulfanyl]propionic acid], in data set [2], the “PPARδ FI (fold induction)” value was determined as 9.3.
Take `CCCN(C(=O)Nc1ccc(OC(F)(F)F)cc1)C1CCc2ccc(SC(C)(C)C(=O)O)cc2C1` (centres unmarked) [Example 46, 2-Methyl-2-{7-[1-propyl-3-(4-trifluoromethoxyphenyl)ureido}-5,6,7,8-tetrahydronaphthalen-2-ylsulfanyl}propionic acid]: the “PPARδ FI (fold induction)” value in data set [2] is 6.0.
As to `CCN(C(=O)Nc1ccc(C(C)(C)C)cc1)C1CCc2cc(SC(C)(C)C(=O)O)c(OC)cc2C1` (centres unmarked) [Example 49, 2-{6-[3-(4-tert-Butylphenyl)1-ethylureido]-3-methoxy-5,6,7,8-tetrahydronaphthalen-2-ylsulfanyl}-2-methyl propionic acid], the EC50 in data set [2] (bracketed values) was > 3 µM.

As usually defined, the EC50 is the concentration needed to bring the measured effect to its halfway point. Higher therefore signals a less potent agent.
